From patent US11975009B2, “Use of zinc porphyrin as an antimicrobial” (ZNABLE LLC, priority 2022, dated 2024)

What was measured:
[1] = test system: PAO1 and PA14 strains of PsA; experiment: Time kill curves, planktonic cells; type: cell-based, Pseudomonas aeruginosa
Method: FIGS. 13A-13B show the time kill curve of ZnPor (II) (25 μg/mL) against PAO1 (FIG. 12A) and PA14 (FIG. 12B) strains of PsA. Overnight cultures of strain PAO1 and PA14 grown in MSG media were diluted in fresh MSG to 10^6 cells/mL with fresh medium. ZnPor was added (25 μg/ml) and cultures were grown aerobically, with shaking, for 6 hours. Viable cell count (CFU per ml) was determined by serially diluting bacterial cells at the indicated time points, onto LB agar. Data from 3 separate experiments represents total mean±standard error, total (n=9) and (n=8) respectively.

[2] = test system: PsA; experiment: Testing for bacterial resistance; type: cell-based, Pseudomonas aeruginosa
Excerpt: One of the major concerns of developing novel small molecule antimicrobials is the potential for bacteria to develop resistance. […] The mechanism of action and target are believed to explain the absence of resistance. An MBC:MIC ratio of 2 which is what we derived from kill curves, was considered an indication of lack of resistance.

[3] = test system: PsA PA14 biofilms; experiment: PA14 biofilm on polyethylene coupons, LIVE/DEAD stain, CLSM; type: cell-based, Pseudomonas aeruginosa; details: ZnPor 25 μg/mL 2 h, then PEV2 (MOI 10:1) 4 h
Method: Biofilms were grown on polyethylene coupons in CDC approved bioreactors in MSG media for […]. Overnight media was replaced with PBS and biofilms were treated as follows: (FIG. 19A) Control (no additions), (FIG. 19B) ZnPor (25 μg/mL) for 2 hours, (FIG. 19C) Phage PEV2 (MOI of 10:1) for 4 hours, or (FIG. 19D) ZnPor (25 μg/mL) for 2 hours followed by the addition of Phage PEV2 (MOI of 10:1) for 4 hours. Coupons were gently washed in distilled water and were treated with LIVE/DEAD™ stain. All coupons were imaged using confocal laser scanning […] microscopy (CLSM) at 60×.

[4] = test system: PsA; experiment: Mouse model of PsA lung infection; type: in vivo, mice
Method: Mice were infected with PsA intratracheally, and subsequently treated with 125 μM ZnPor intratracheally. Bronchoalveolar lavage (BAL) was collected at 16 h. Bacterial titers were measured in BAL. *p<0.05, Mann-Whitney U. Representative of one experiment.
Based on in vitro experiments showing significant bactericidal activity of ZnPor against PsA and minimal toxicity of ZnPor in vitro in airway and alveolar epithelial cells as well as in monocytes/macrophages, the next experiments examined efficacy and safety of ZnPor in PsA infection in mice. Wildtype (WT) mice were anesthetized and infected with 5×10^6 CFU PsA via intratracheal route. Immediately following infection, mice were anesthetized again and treated with ZnPor (125 μM) or PBS (negative control). Mice were monitored for clinical signs of toxicity. At 16 h, mice were sacrificed and bronchoalveolar lavage (BAL) and lungs were isolated.

[5] = test system: Coronavirus isolated from a cold (ATCC); experiment: Anti-viral activity against a Coronavirus; type: cell-based; details: without light activation
Excerpt: ZnPor (II) can interact with many macromolecules and may bind to important components of a virus, rendering it unable to infect cells. […] This is due to the high levels of ROSs (Reactive Oxygen Species, e.g., superoxide) produced by activation of the porphyrin and which destroy a wide range of macromolecules (proteins, lipids etc.). […] ZnPor can bind to proteins, which may have accounted for how ZnPor (II) acted, in that it bound to the viral proteins such as the spike protein of Coronaviruses. If the Spike proteins bound to ZnPor (II) then the virus couldn't attach to the host cell binding receptor for the spike proteins. There are relatively few antiviral agents. While there are a number of porphyrins that can inactivate viruses using light activation, ZnPor (II) porphyrin has antiviral activity without light activation.

[6] = test system: S. aureus MSSA and MRSA strains (GP); experiment: Killing activity against a range of bacteria; type: cell-based, Staphylococcus aureus
[7] = test system: Mycobacterium tuberculosis; experiment: Killing of acid fast bacterium; type: cell-based
Excerpt: ZnPor (II) is the only porphyrin that kills Gram-positive and Gram-negative bacteria without photoactivation. […] Additionally, ZnPor (II) inactivates the bacteriophage PEV2, a well-studied bacteriophage of Pseudomonas aeruginosa. PEV2 is currently being used in phage therapy in Europe. […] While ZnPor (II) can inactivate phage, at lower concentrations it can act synergistically with bacteriophage PEV2 or the purified genome of PEV2 in remediation of biofilms of PsA. This is referred to as PAS Phage Antibiotic Synergy (PAS) and is of great interest and intense study; as a means to overcome several known limitations of phage-only “Phage Therapy”.

[8] = test system: human lung or skin cells
[9] = test system: Drosophila melanogaster; details: flies fed ZnPor (II); Yoho et al. 2014; cited from earlier work
[10] = test system: PsA; experiment: Activity of extant antibiotics together with ZnPor (II)

meso-5,10,15-tris(N-methyl-4-pyridyl)-20-(pentafluorophenyl)porphyrinatozinc(II), tris-p-toluene sulfonate [ZnPor]
bactericidal concentration ([1]; PsA): 25 µg/mL
MBC:MIC ratio ([1]; derived from kill curves): 2
colony growth on LB plates ([2]; 2×, 4× and 8×MIC concentration of ZnPor with PsA cell): No colony growth
resistance ([2]; during 8 years of testing): no resistance was observed
effect on PA14 cells towards PEV2 phage [3]: sensitive to PEV2 phage
bacterial titers in BAL and lung homogenates ([4]; WT mice, 5×10^6 CFU PsA intratracheal, ZnPor 125 μM, 16 h): significantly decreased PsA infection
clinical toxicity ([4]; ZnPor-treated versus untreated mice, 125 μM): No clinical toxicity was observed
viral infection [5]: prevented viral infection
killing [6]: effective at killing
killing [7]: effective at killing
non-toxic level relative to the MBC for S. aureus MRSA strain [8]: over 100 times
toxicity [8]: no toxicity
toxicity to Drosophila [9]: not toxic
effect on extant antibiotics ineffective against bacterial biofilms, e.g., Tobramycin [10]: enables activity
